# Legend:
# Type in all cases: in vivo
# Details in all cases: after 13 d
# [1] = tested on: barnyardgrass (Echinochloa crus-galli, ECHCG); assay: Test A pre-emergence, barnyardgrass
# Description: (§1) Seeds of corn (Zea mays, ZEAMX), giant foxtail (Setaria faberi, SETFA), barnyardgrass (Echinochloa crus-galli, ECHCG), ivy-leaved morning glory (Ipomoea hederacea, IPOHE), redroot pigweed (Amaranthus retroflexus, AMARE) and velvetleaf (Abutilon theophrasti, ABUTH) were sown in standard soil in pots. After cultivation for one day under controlled conditions in a glasshouse (at 24/16° C., day/night; 14 h light; 65% humidity), the plants were sprayed with an aqueous spray solution derived from the formulation of the technical active ingredient in acetone/water (50:50) solution containing 0.5% Tween 20 (polyoxyethylene sorbitan monolaurate, CAS RN 9005-64-5) to give a final dose of 15.625, 62.5 or 250 g/ha of test compound.
# (§2) The test plants were then grown under controlled conditions in a glasshouse (at 24/16° C., day/night; 14 h light; 65% humidity) and watered twice daily. After 13 d the test was evaluated (100=total damage to plant; 0=no damage to plant).
# [2] = tested on: ivy-leaved morning glory (Ipomoea hederacea, IPOHE); assay: Test A post-emergence, ivy-leaved morning glory
# Description: as §1, with “IPOHE)),” for “IPOHE),”, “8 d” for “one day”
# (§3) The test plants were then grown on under controlled conditions in a glasshouse (at 24/16° C., day/night; 14 h light; 65% humidity) and watered twice daily. After 13 d the test was evaluated (100=total damage to plant; 0=no damage to plant).
# [3] = tested on: velvetleaf (Abutilon theophrasti, ABUTH); assay: Test A pre-emergence, velvetleaf
# Description: as §1, §2
# [4] = tested on: giant foxtail (Setaria faberi, SETFA); assay: Test A post-emergence, giant foxtail
# Description: as §1, with “IPOHE)),” for “IPOHE),”, “8 d” for “one day”
# as §3
# [5] = tested on: corn (Zea mays, ZEAMX); assay: Test A post-emergence, corn
# Description: as §1, with “IPOHE)),” for “IPOHE),”, “8 d” for “one day”
# as §3
# [6] = tested on: barnyardgrass (Echinochloa crus-galli, ECHCG); assay: Test A post-emergence, barnyardgrass
# Description: as §1, with “IPOHE)),” for “IPOHE),”, “8 d” for “one day”
# as §3
# [7] = tested on: giant foxtail (Setaria faberi, SETFA); assay: Test A pre-emergence, giant foxtail
# Description: as §1, §2
# [8] = tested on: redroot pigweed (Amaranthus retroflexus, AMARE); assay: Test A post-emergence, redroot pigweed
# Description: as §1, with “IPOHE)),” for “IPOHE),”, “8 d” for “one day”
# as §3
# [9] = tested on: velvetleaf (Abutilon theophrasti, ABUTH); assay: Test A post-emergence, velvetleaf
# Description: as §1, with “IPOHE)),” for “IPOHE),”, “8 d” for “one day”
# as §3
# [10] = tested on: corn (Zea mays, ZEAMX); assay: Test A pre-emergence, corn
# Description: as §1, §2
# [11] = tested on: redroot pigweed (Amaranthus retroflexus, AMARE); assay: Test A pre-emergence, redroot pigweed
# Description: as §1, §2
# [12] = tested on: ivy-leaved morning glory (Ipomoea hederacea, IPOHE); assay: Test A pre-emergence, ivy-leaved morning glory
# Description: as §1, §2
Structure (SMILES),damage to plant (100=total damage; 0=no damage) ECHCG ([1]; Pre-Emergence at 15.625 g/ha),damage to plant (100=total damage; 0=no damage) ECHCG ([1]; Pre-Emergence at 62.5 g/ha),damage to plant (100=total damage; 0=no damage) ECHCG ([1]; Pre-Emergence at 250 g/ha),damage to plant (100=total damage; 0=no damage) IPOHE ([2]; Post-Emergence at 15.625 g/ha),damage to plant (100=total damage; 0=no damage) IPOHE ([2]; Post-Emergence at 62.5 g/ha),damage to plant (100=total damage; 0=no damage) IPOHE ([2]; Post-Emergence at 250 g/ha),damage to plant (100=total damage; 0=no damage) ABUTH ([3]; Pre-Emergence at 15.625 g/ha),damage to plant (100=total damage; 0=no damage) ABUTH ([3]; Pre-Emergence at 62.5 g/ha),damage to plant (100=total damage; 0=no damage) ABUTH ([3]; Pre-Emergence at 250 g/ha),damage to plant (100=total damage; 0=no damage) SETFA ([4]; Post-Emergence at 15.625 g/ha),damage to plant (100=total damage; 0=no damage) SETFA ([4]; Post-Emergence at 62.5 g/ha),damage to plant (100=total damage; 0=no damage) SETFA ([4]; Post-Emergence at 250 g/ha),damage to plant (100=total damage; 0=no damage) ZEAMX ([5]; Post-Emergence at 15.625 g/ha),damage to plant (100=total damage; 0=no damage) ZEAMX ([5]; Post-Emergence at 62.5 g/ha),damage to plant (100=total damage; 0=no damage) ZEAMX ([5]; Post-Emergence at 250 g/ha),damage to plant (100=total damage; 0=no damage) ECHCG ([6]; Post-Emergence at 15.625 g/ha),damage to plant (100=total damage; 0=no damage) ECHCG ([6]; Post-Emergence at 62.5 g/ha),damage to plant (100=total damage; 0=no damage) ECHCG ([6]; Post-Emergence at 250 g/ha),damage to plant (100=total damage; 0=no damage) SETFA ([7]; Pre-Emergence at 15.625 g/ha),damage to plant (100=total damage; 0=no damage) SETFA ([7]; Pre-Emergence at 62.5 g/ha),further results
CCn1nc([C@H]2CN(C)C(=O)[C@@H]2C(=O)Nc2ccc(F)nc2F)c2cccc(F)c21 [Compound 11],20,90,90,0,0,0,0,0,0,60,80,80,10,10,40,50,90,90,80,90,damage to plant (100=total damage; 0=no damage) SETFA ([7]; Pre-Emergence at 250 g/ha): 90; damage to plant (100=total damage; 0=no damage) AMARE ([8]; Post-Emergence at 15.625 g/ha): 0; damage to plant (100=total damage; 0=no damage) AMARE ([8]; Post-Emergence at 62.5 g/ha): 0; damage to plant (100=total damage; 0=no damage) AMARE ([8]; Post-Emergence at 250 g/ha): 0; damage to plant (100=total damage; 0=no damage) ABUTH ([9]; Post-Emergence at 15.625 g/ha): 0; damage to plant (100=total damage; 0=no damage) ABUTH ([9]; Post-Emergence at 62.5 g/ha): 0; damage to plant (100=total damage; 0=no damage) ABUTH ([9]; Post-Emergence at 250 g/ha): 0; damage to plant (100=total damage; 0=no damage) ZEAMX ([10]; Pre-Emergence at 15.625 g/ha): 0; damage to plant (100=total damage; 0=no damage) ZEAMX ([10]; Pre-Emergence at 62.5 g/ha): 0; damage to plant (100=total damage; 0=no damage) ZEAMX ([10]; Pre-Emergence at 250 g/ha): 20; damage to plant (100=total damage; 0=no damage) AMARE ([11]; Pre-Emergence at 15.625 g/ha): 0; damage to plant (100=total damage; 0=no damage) AMARE ([11]; Pre-Emergence at 62.5 g/ha): 0; damage to plant (100=total damage; 0=no damage) AMARE ([11]; Pre-Emergence at 250 g/ha): 0; damage to plant (100=total damage; 0=no damage) IPOHE ([12]; Pre-Emergence at 15.625 g/ha): 0; damage to plant (100=total damage; 0=no damage) IPOHE ([12]; Pre-Emergence at 62.5 g/ha): 0; damage to plant (100=total damage; 0=no damage) IPOHE ([12]; Pre-Emergence at 250 g/ha): 10
CN1CC(c2cc(Cl)n(C)n2)C(C(=O)Nc2ccc(F)cc2F)C1=O (racemic) [Compound 29],30,70,80,0,0,10,0,0,0,10,20,60,0,0,0,20,50,60,20,30,damage to plant (100=total damage; 0=no damage) SETFA ([7]; Pre-Emergence at 250 g/ha): 80; damage to plant (100=total damage; 0=no damage) AMARE ([8]; Post-Emergence at 15.625 g/ha): 10; damage to plant (100=total damage; 0=no damage) AMARE ([8]; Post-Emergence at 62.5 g/ha): 30; damage to plant (100=total damage; 0=no damage) AMARE ([8]; Post-Emergence at 250 g/ha): 40; damage to plant (100=total damage; 0=no damage) ABUTH ([9]; Post-Emergence at 15.625 g/ha): 0; damage to plant (100=total damage; 0=no damage) ABUTH ([9]; Post-Emergence at 62.5 g/ha): 0; damage to plant (100=total damage; 0=no damage) ABUTH ([9]; Post-Emergence at 250 g/ha): 0; damage to plant (100=total damage; 0=no damage) ZEAMX ([10]; Pre-Emergence at 15.625 g/ha): 0; damage to plant (100=total damage; 0=no damage) ZEAMX ([10]; Pre-Emergence at 62.5 g/ha): 10; damage to plant (100=total damage; 0=no damage) ZEAMX ([10]; Pre-Emergence at 250 g/ha): 10; damage to plant (100=total damage; 0=no damage) AMARE ([11]; Pre-Emergence at 15.625 g/ha): 0; damage to plant (100=total damage; 0=no damage) AMARE ([11]; Pre-Emergence at 62.5 g/ha): 0; damage to plant (100=total damage; 0=no damage) AMARE ([11]; Pre-Emergence at 250 g/ha): 0; damage to plant (100=total damage; 0=no damage) IPOHE ([12]; Pre-Emergence at 15.625 g/ha): 0; damage to plant (100=total damage; 0=no damage) IPOHE ([12]; Pre-Emergence at 62.5 g/ha): 0; damage to plant (100=total damage; 0=no damage) IPOHE ([12]; Pre-Emergence at 250 g/ha): 0
CN1CC(c2nn(C)c(Cl)c2Br)C(C(=O)Nc2ccc(F)c(F)c2F)C1=O (racemic) [Compound 32],30,50,70,0,0,10,0,0,0,20,60,80,0,0,10,10,40,80,20,60,damage to plant (100=total damage; 0=no damage) SETFA ([7]; Pre-Emergence at 250 g/ha): 90; damage to plant (100=total damage; 0=no damage) AMARE ([8]; Post-Emergence at 15.625 g/ha): 0; damage to plant (100=total damage; 0=no damage) AMARE ([8]; Post-Emergence at 62.5 g/ha): 0; damage to plant (100=total damage; 0=no damage) AMARE ([8]; Post-Emergence at 250 g/ha): 0; damage to plant (100=total damage; 0=no damage) ABUTH ([9]; Post-Emergence at 15.625 g/ha): 0; damage to plant (100=total damage; 0=no damage) ABUTH ([9]; Post-Emergence at 62.5 g/ha): 0; damage to plant (100=total damage; 0=no damage) ABUTH ([9]; Post-Emergence at 250 g/ha): 0; damage to plant (100=total damage; 0=no damage) ZEAMX ([10]; Pre-Emergence at 15.625 g/ha): 0; damage to plant (100=total damage; 0=no damage) ZEAMX ([10]; Pre-Emergence at 62.5 g/ha): 10; damage to plant (100=total damage; 0=no damage) ZEAMX ([10]; Pre-Emergence at 250 g/ha): 10; damage to plant (100=total damage; 0=no damage) AMARE ([11]; Pre-Emergence at 15.625 g/ha): 0; damage to plant (100=total damage; 0=no damage) AMARE ([11]; Pre-Emergence at 62.5 g/ha): 0; damage to plant (100=total damage; 0=no damage) AMARE ([11]; Pre-Emergence at 250 g/ha): 0; damage to plant (100=total damage; 0=no damage) IPOHE ([12]; Pre-Emergence at 15.625 g/ha): 0; damage to plant (100=total damage; 0=no damage) IPOHE ([12]; Pre-Emergence at 62.5 g/ha): 0; damage to plant (100=total damage; 0=no damage) IPOHE ([12]; Pre-Emergence at 250 g/ha): 10
CN1CC(c2cc(C(F)(F)F)n(C)n2)C(C(=O)Nc2cccc(F)c2F)C1=O (stereo not drawn) [Compound 12],0,0,10,0,0,0,0,0,0,0,0,0,0,0,0,0,0,0,0,0,damage to plant (100=total damage; 0=no damage) SETFA ([7]; Pre-Emergence at 250 g/ha): 0; damage to plant (100=total damage; 0=no damage) AMARE ([8]; Post-Emergence at 15.625 g/ha): 0; damage to plant (100=total damage; 0=no damage) AMARE ([8]; Post-Emergence at 62.5 g/ha): 0; damage to plant (100=total damage; 0=no damage) AMARE ([8]; Post-Emergence at 250 g/ha): 0; damage to plant (100=total damage; 0=no damage) ABUTH ([9]; Post-Emergence at 15.625 g/ha): 0; damage to plant (100=total damage; 0=no damage) ABUTH ([9]; Post-Emergence at 62.5 g/ha): 0; damage to plant (100=total damage; 0=no damage) ABUTH ([9]; Post-Emergence at 250 g/ha): 0; damage to plant (100=total damage; 0=no damage) ZEAMX ([10]; Pre-Emergence at 15.625 g/ha): 0; damage to plant (100=total damage; 0=no damage) ZEAMX ([10]; Pre-Emergence at 62.5 g/ha): 0; damage to plant (100=total damage; 0=no damage) ZEAMX ([10]; Pre-Emergence at 250 g/ha): 20; damage to plant (100=total damage; 0=no damage) AMARE ([11]; Pre-Emergence at 15.625 g/ha): 0; damage to plant (100=total damage; 0=no damage) AMARE ([11]; Pre-Emergence at 62.5 g/ha): 0; damage to plant (100=total damage; 0=no damage) AMARE ([11]; Pre-Emergence at 250 g/ha): 10; damage to plant (100=total damage; 0=no damage) IPOHE ([12]; Pre-Emergence at 15.625 g/ha): 0; damage to plant (100=total damage; 0=no damage) IPOHE ([12]; Pre-Emergence at 62.5 g/ha): 0; damage to plant (100=total damage; 0=no damage) IPOHE ([12]; Pre-Emergence at 250 g/ha): 20

# From patent publication US20220281848A1, “PYRAZOLE-SUBSTITUTED PYRROLIDINONES AS HERBICIDES” (FMC Corporation, priority 2019, published 2022)
